Assay results as given in patent US20230210999A1, “TARGETED PROTEASE DEGRADATION (TED) PLATFORM” (EUBULUS BIOTHERAPEUTICS INC., priority 2020, published 2023).
Like-named read-outs stand apart in the source and are kept apart here.

Experiments:
Format in all cases: cell-based, human
[1] = system: MDA-MB-231 cells; assay: Cell proliferation experiment, MDA-MB-231; details: read-out: Inhibitory activity IC50 on MDA-MB-231
Outline: (§1)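 IC50 values derive from a four-parameter logistic fit of Alamar blue fluorescence. Cells in logarithmic growth, plated in 96-well format, are treated for 72 h with compound diluted 5-fold serially, two wells per concentration.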

[2] = system: NCIH82 cells; assay: Cell proliferation experiment, NCI-H82; details: read-out: Inhibitory activity IC50 on NCI-H82
Outline: as §1

[3] = system: Daudi cells; assay: Cell proliferation experiment, Daudi; details: Daudi cells, read-out: Inhibitory activity IC50 on Daudi
Outline: as §1

[4] = system: MV4;11 cells; assay: Cell proliferation experiment (Alamar blue, 72 h), MV4;11; details: read-out: Inhibitory activity IC50 on MV4;11
Outline: as §1

[5] = system: PC-3; assay: Cell proliferation experiment, PC-3; details: read-out: Inhibitory activity IC50 on PC-3
Outline: as §1

[6] = Homo sapiens, MDA-MB-231, MDA-MB-231 cells
[7] = Homo sapiens, NCI-H82, NCI-H82 cells
[8] = Homo sapiens, MV4-11, MV4;11 cells

| IC50 [1, 6] | IC50 [2, 7] | IC50 [3] | IC50 [4, 8] | IC50 ([5]; PC-3 cells) | IC50 ([2]; NCI-H82 cells) | IC50 ([3]; Homo sapiens, Daudi) | IC50 ([5]; Homo sapiens, PC-3, PC-3 cells) | IC50 ([1]; MDA-MB-231 cells) | IC50 ([4]; MV4;11 cells) | SMILES |
| --- | --- | --- | --- | --- | --- | --- | --- | --- | --- | --- |
|  |  | 10 to 100 nM |  | 10 to 100 nM | 10 to 100 nM |  |  | 100 to 1000 nM | < 10 nM | CNC(=O)c1ccccc1Nc1nc(Nc2ccc(N3CCN(C(=O)N[C@H]4CC[C@@H](NCCOCCC#Cc5ccc6c(c5)CN(C5CCC(=O)NC5=O)C6=O)CC4)CC3)cc2)ncc1Cl (some centres unmarked) [UB-181115] |
|  |  | 100 to 1000 nM |  | 100 to 1000 nM | 100 to 1000 nM |  |  | 100 to 1000 nM | < 10 nM | CNC(=O)c1ccccc1Nc1nc(Nc2ccc(N3CCN(C(=O)N[C@H]4CC[C@@H](NCCOCCC#Cc5cccc6c5CN(C5CCC(=O)NC5=O)C6=O)CC4)CC3)cc2)ncc1Cl (some centres unmarked) [UB-181121] |
| 100 to 1000 nM | 100 to 1000 nM |  | < 10 nM |  |  | 100 to 1000 nM | 100 to 1000 nM |  |  | CNC(=O)c1ccccc1Nc1nc(Nc2ccc(C3CCN(C(=O)N[C@H]4CC[C@@H](NCCOCCC#Cc5ccc6c(c5)CN(C5CCC(=O)NC5=O)C6=O)CC4)CC3)cc2)ncc1Cl (some centres unmarked) [UB-181122] |
| 10 to 100 nM | 10 to 100 nM |  | < 10 nM |  |  | 10 to 100 nM | 10 to 100 nM |  |  | CNC(=O)c1ccccc1Nc1nc(Nc2ccc(N3CCN(C(=O)NC4CCC(N[C@H]5CC[C@@H](OCC#Cc6ccc7c(c6)CN(C6CCC(=O)NC6=O)C7=O)CC5)CC4)CC3)cc2)ncc1Cl (some centres unmarked) [UB-181127] |
| > 1000 nM | 10 to 100 nM |  | 10 to 100 nM |  |  | 100 to 1000 nM | > 1000 nM |  |  | CNC(=O)c1ccccc1Nc1nc(Nc2ccc(N3CCN(C(=O)NC4CCC(NC5CCC(OCC#Cc6ccc7c(c6)CN(C6CCC(=O)NC6=O)C7=O)CC5)CC4)CC3)cc2)ncc1Cl (centres unmarked) [UB-181131] |
| 100 to 1000 nM | 100 to 1000 nM |  | < 10 nM |  |  | 100 to 1000 nM | 10 to 100 nM |  |  | CNC(=O)c1ccccc1Nc1nc(Nc2ccc(C3CCN(C(=O)N[C@H]4CC[C@H](NCCC#Cc5ccc6c(c5)CN(C5CCC(=O)NC5=O)C6=O)CC4)CC3)cc2)ncc1Cl (some centres unmarked) [UB-181137] |

The next lines start with the compound.

| SMILES | IC50 [1, 6] | IC50 [2, 7] | IC50 [3] | IC50 [4, 8] | IC50 ([5]; PC-3 cells) | IC50 ([2]; NCI-H82 cells) | IC50 ([3]; Homo sapiens, Daudi) | IC50 ([5]; Homo sapiens, PC-3, PC-3 cells) | IC50 ([1]; MDA-MB-231 cells) | IC50 ([4]; MV4;11 cells) |
| --- | --- | --- | --- | --- | --- | --- | --- | --- | --- | --- |
| CNC(=O)c1ccccc1Nc1nc(Nc2ccc(N3CCN(C(=O)N[C@H]4CC[C@@H](NCCOCCC#Cc5cccc6c5CN(C5CCC(=O)NC5=O)C6=O)CC4)CC3)cc2)ncc1Cl (some centres unmarked) [UB-181078] | 100 to 1000 nM | 100 to 1000 nM | 10 to 100 nM | < 10 nM | 10 to 100 nM |  |  |  |  |  |
| CNC(=O)c1ccccc1Nc1nc(Nc2ccc(N3CCN(C(=O)N[C@H]4CC[C@@H](NCCOCCC#Cc5ccc6c(c5)CN(C5CCC(=O)NC5=O)C6=O)CC4)CC3)cc2)ncc1Cl (some centres unmarked) [UB-181080] | 100 to 1000 nM |  |  | < 10 nM |  | 100 to 1000 nM | 10 to 100 nM | 10 to 100 nM |  |  |
| CNC(=O)c1ccccc1Nc1nc(Nc2ccc(N3CCN(C(=O)N[C@H]4CC[C@@H](NCCCC#Cc5cccc6c5CN(C5CCC(=O)NC5=O)C6=O)CC4)CC3)cc2)ncc1Cl (some centres unmarked) [UB-181100] | 100 to 1000 nM | 10 to 100 nM |  | < 10 nM |  |  | 10 to 100 nM | 10 to 100 nM |  |  |
| CNC(=O)c1ccccc1Nc1nc(Nc2ccc(N3CCN(C(=O)N[C@H]4CC[C@@H](NCCCC#Cc5ccc6c(c5)CN(C5CCC(=O)NC5=O)C6=O)CC4)CC3)cc2)ncc1Cl (some centres unmarked) [UB-181101] | 100 to 1000 nM | 10 to 100 nM |  | < 10 nM |  |  | 10 to 100 nM | 100 to 1000 nM |  |  |
| CNC(=O)c1ccccc1Nc1nc(Nc2ccc(N3CCN(C(=O)N[C@H]4CC[C@@H](NCCCCOCC(=O)Nc5cccc6c5CN(C5CCC(=O)NC5=O)C6=O)CC4)CC3)cc2)ncc1Cl (some centres unmarked) [UB-181102] | > 1000 nM | 100 to 1000 nM |  | 10 to 100 nM |  |  | 100 to 1000 nM | > 1000 nM |  |  |
| CNC(=O)c1ccccc1Nc1nc(Nc2ccc(N3CCN(C(=O)N[C@H]4CC[C@@H](NCCC#Cc5ccc6c(c5)CN(C5CCC(=O)NC5=O)C6=O)CC4)CC3)cc2)ncc1Cl (some centres unmarked) [UB-181103] | 100 to 1000 nM | 10 to 100 nM |  | < 10 nM |  |  | 10 to 100 nM | 10 to 100 nM |  |  |
| CNC(=O)c1ccccc1Nc1nc(Nc2ccc(N3CCN(C(=O)N[C@H]4CC[C@@H](NCCC#Cc5cccc6c5CN(C5CCC(=O)NC5=O)C6=O)CC4)CC3)cc2)ncc1Cl (some centres unmarked) [UB-181104] | 100 to 1000 nM | 10 to 100 nM |  | < 10 nM |  |  | 10 to 100 nM | 10 to 100 nM |  |  |
